Test results published in publication PMC7587356, “High-Throughput Screening for Inhibitors of the SARS-CoV-2 Protease Using a FRET-Biosensor” (Molecules, 2020).
Counter-ions that a name gives are not always drawn. Like-named read-outs stand apart in the source and are kept apart here.

Target: SARS-CoV-2 3CLpro (Severe acute respiratory syndrome coronavirus 2, UniProt P0DTD1)
Assay: biochemical
Type: biochemical
Design: Replicate_1 / Replicate_2 / mean / mean (LOPAC_screen_w_protease): unit not given here
Settings: for inhibition at 5 µM: 4 h
[1] = sheet LOPAC_screen_w_protease, LOPAC1280 primary screen at 5 µM, with protease, mean of the two replicates
[2] = sheet LOPAC_screen_w_protease, LOPAC1280 primary screen at 5 µM, with protease, replicate 1
[3] = sheet LOPAC_screen_w_protease, LOPAC1280 primary screen at 5 µM, with protease, replicate 2
[4] = sheet LOPAC_screen_w_protease, LOPAC1280 primary screen at 5 µM, with protease, replicate 1, read-out: Replicate_1
[5] = sheet LOPAC_screen_w_protease, LOPAC1280 primary screen at 5 µM, with protease, replicate 2, read-out: Replicate_2
[6] = LOPAC1280 primary screen with protease, 5 µM compound, mean of two replicates
[7] = LOPAC1280 primary screen with protease, 5 µM compound, replicate 1
[8] = LOPAC1280 primary screen with protease, 5 µM compound, replicate 2
[9] = sheet LOPAC_screen_w_protease, LOPAC1280 primary screen with protease, 5 µM compound, mean of the two replicates
[10] = sheet LOPAC_screen_w_protease, LOPAC1280 primary screen with protease, 5 µM compound, replicate 1
[11] = sheet LOPAC_screen_w_protease, LOPAC1280 primary screen with protease, 5 µM compound, replicate 2
[12] = LOPAC1280 primary screen with protease, 5 µM compound, mean of the two replicates
[13] = sheet LOPAC_screen_w_protease, LOPAC1280 primary screen at 5 µM, with protease, mean of the two replicates, read-out: mean
[14] = LOPAC1280 primary screen with protease, 5 µM compound, replicate 1, read-out: Replicate_1 (LOPAC_screen_w_protease)
[15] = LOPAC1280 primary screen with protease, 5 µM compound, replicate 2, read-out: Replicate_2 (LOPAC_screen_w_protease)
[16] = sheet LOPAC_screen_w_protease, LOPAC1280 at 5 µM, mean of two replicates, read-out: mean
[17] = sheet LOPAC_screen_w_protease, LOPAC1280 at 5 µM, replicate 1, read-out: Replicate_1
[18] = sheet LOPAC_screen_w_protease, LOPAC1280 at 5 µM, replicate 2, read-out: Replicate_2
[19] = sheet LOPAC_screen_w_protease, primary screen at 5 µM, mean of two replicates, read-out: mean (LOPAC screen with protease)
[20] = sheet LOPAC_screen_w_protease, primary screen at 5 µM, replicate 1, read-out: Replicate_1 (LOPAC screen with protease)
[21] = sheet LOPAC_screen_w_protease, primary screen at 5 µM, replicate 2, read-out: Replicate_2 (LOPAC screen with protease)
[22] = sheet LOPAC_screen_w_protease, LOPAC1280 primary screen with protease, 5 µM compound, mean of the two replicates, read-out: mean
[23] = sheet LOPAC_screen_w_protease, LOPAC1280 primary screen with protease, 5 µM compound, replicate 1, read-out: Replicate_1
[24] = sheet LOPAC_screen_w_protease, LOPAC1280 primary screen with protease, 5 µM compound, replicate 2, read-out: Replicate_2
[25] = sheet LOPAC_screen_w_protease, primary screen with protease, mean of two replicates, read-out: mean
[26] = sheet LOPAC_screen_w_protease, primary screen with protease, replicate 1, read-out: Replicate_1
[27] = sheet LOPAC_screen_w_protease, primary screen with protease, replicate 2, read-out: Replicate_2

COc1nc(C)nc(Cl)c1NC1=NCCN1.Cl [Moxonidine hydrochloride]
mean (sheet LOPAC_screen_w_protease, primary screen of LOPAC1280 at 5 µM with protease, mean of the two replicates): 3.905 | Replicate_1 (sheet LOPAC_screen_w_protease, primary screen of LOPAC1280 at 5 µM with protease, replicate 1): 2.314 | Replicate_2 (sheet LOPAC_screen_w_protease, primary screen of LOPAC1280 at 5 µM with protease, replicate 2): 5.497

Cl.c1ccc(CN2CCC3(CCCc4ccccc43)CC2)cc1 [L-687,384 hydrochloride]
mean [1]: 0.6815 | Replicate_1 [2]: 0.6204 | Replicate_2 [3]: 0.7425

O=c1c2ccccc2[nH]c(=S)n1CCN1CCC(=C(c2ccc(F)cc2)c2ccc(F)cc2)CC1 [Diacylglycerol Kinase Inhibitor II]
inhibition at 5 µM (sheet LOPAC_screen_w_protease, LOPAC1280 primary screen at 5 µM, with protease, mean of two replicates, read-out: mean): -3.62% | inhibition at 5 µM [4]: -4.63% | inhibition at 5 µM [5]: -2.61%

CC(C)(C=O)Cc1cc(C(C)(C)C)c(O)c(C(C)(C)C)c1 [CGP-13501]
mean (LOPAC_screen_w_protease) [6]: 1.552 | Replicate_1 (LOPAC_screen_w_protease) [7]: -0.1889 | Replicate_2 (LOPAC_screen_w_protease) [8]: 3.292

CNCCc1c[nH]c2ccc(O)cc12.O=C(O)C(=O)O
mean [9]: 5.527 | Replicate_1 [10]: 5.7 | Replicate_2 [11]: 5.354

CN1C2CCC1CC(NC(=O)c1nn(C)c3ccccc13)C2.O=C(O)/C=C\C(=O)O (stereo not drawn) [LY-278,584 maleate]
mean [9]: 4.776 | Replicate_1 [10]: 3.942 | Replicate_2 [11]: 5.61

C#CCn1c(=O)c2c(ncn2C)n(C)c1=O [3,7-Dimethyl-I-propargylxanthine]
mean (sheet LOPAC_screen_w_protease, primary screen with protease, mean of two replicates): 2.439 | Replicate_1 (sheet LOPAC_screen_w_protease, primary screen with protease, replicate 1): 3.614 | Replicate_2 (sheet LOPAC_screen_w_protease, primary screen with protease, replicate 2): 1.263

CC(C)Cc1ccc(C(C)C(=O)O)cc1 (racemic) [(±)-Ibuprofen]
mean (LOPAC_screen_w_protease) [12]: 1.9945 | Replicate_1 (LOPAC_screen_w_protease) [7]: 3.023 | Replicate_2 (LOPAC_screen_w_protease) [8]: 0.9655

CN(C)C(=O)Oc1ccc[n+](C)c1 [Pyridostigmine bromide]
inhibition at 5 µM (sheet LOPAC_screen_w_protease, primary screen with protease, 5 µM, mean of two replicates, read-out: mean): 0.333% | inhibition at 5 µM (sheet LOPAC_screen_w_protease, primary screen with protease, 5 µM, replicate 1, read-out: Replicate_1): 1.4% | inhibition at 5 µM (sheet LOPAC_screen_w_protease, primary screen with protease, 5 µM, replicate 2, read-out: Replicate_2): -0.737%

O=C(OCCN1CCCCC1)c1c[nH]c2ccccc12 [SB 203186]
mean (sheet LOPAC_screen_w_protease, primary screen with protease, compound at 5 µM, mean of two replicates): 2.639 | Replicate_1 (sheet LOPAC_screen_w_protease, primary screen with protease, compound at 5 µM, replicate 1): 2.947 | Replicate_2 (sheet LOPAC_screen_w_protease, primary screen with protease, compound at 5 µM, replicate 2): 2.331

CN1C(=O)CCS(=O)(=O)C1c1ccc(Cl)cc1 (stereo not drawn) [Chlormezanone]
inhibition at 5 µM [13]: 0.463% | inhibition at 5 µM [4]: 2.15% | inhibition at 5 µM [5]: -1.22%

C#C[C@]1(O)CC[C@H]2[C@@H]3CCC4=Cc5nc6nc7ccccc7n6cc5C[C@]4(C)[C@H]3CC[C@@]21C [WIN 62,577]
Replicate_1: -0.8505 | Replicate_2: 3.428 | mean: 1.289

CC1(C(=O)O)C2CCC(O2)C1(C)C(=O)O (stereo not drawn) [Cantharidic Acid]
inhibition at 5 µM [14]: 2.04% | inhibition at 5 µM [15]: 1.78% | mean (LOPAC_screen_w_protease) [12]: 1.914

CCN(CC)CCNC(=O)c1cc(S(C)(=O)=O)ccc1OC [Tiapride hydrochloride]
inhibition at 5 µM [16]: 1.21% | inhibition at 5 µM [17]: 1.45% | inhibition at 5 µM [18]: 0.964%

COC(=O)C1=C(C)NC(C)=C(C(=O)OC)C1c1ccccc1[N+](=O)[O-] [Nifedipine]
inhibition at 5 µM [19]: 14.6% | inhibition at 5 µM [20]: 13.8% | inhibition at 5 µM [21]: 15.5%

Cl.O=C(CCCN1CCC2(CC1)C(=O)N(CCc1ccc(N=C=S)cc1)CN2c1ccccc1)c1ccc(F)cc1
mean [9]: 5.051 | Replicate_1 [10]: 5.654 | Replicate_2 [11]: 4.448

CC(=O)OCC(=O)[C@@]1(O)CC[C@H]2[C@@H]3CCC4=CC(=O)CC[C@]4(C)[C@H]3C(=O)C[C@@]21C [Cortisone 21-acetate]
inhibition at 5 µM [14]: 2.66% | inhibition at 5 µM [15]: 0.881% | mean (LOPAC_screen_w_protease) [12]: 1.771

Br.CCCN(CCC)[C@@H]1CCc2cccc(O)c2C1 [R-(+)-8-Hydroxy-DPAT hydrobromide]
mean (sheet LOPAC_screen_w_protease, primary screen with protease, 5 µM, mean of two replicates): -0.6201 | Replicate_1 (sheet LOPAC_screen_w_protease, primary screen with protease, 5 µM, replicate 1): 2.2019 | Replicate_2 (sheet LOPAC_screen_w_protease, primary screen with protease, 5 µM, replicate 2): -3.442

Clc1ccc(C(c2ccc(Cl)cc2)n2cc[n+](CC(OCc3ccc(Cl)cc3Cl)c3ccc(Cl)cc3Cl)c2)cc1 (stereo not drawn) [Calmidazolium chloride]
inhibition at 5 µM [19]: 9.31% | inhibition at 5 µM [20]: 8.14% | inhibition at 5 µM [21]: 10.5%

Cn1cnc2c(NCc3ccccc3)nc(NCCO)nc21 [Olomoucine]
inhibition at 5 µM [22]: 4.92% | inhibition at 5 µM [23]: 3.02% | inhibition at 5 µM [24]: 6.83%

Cc1nccc2c1[nH]c1ccccc12 [Harmane]
inhibition at 5 µM [16]: 1.1% | inhibition at 5 µM [17]: 2.71% | inhibition at 5 µM [18]: -0.5%

Nc1ncnc2c1c(-c1ccc(Oc3ccccc3)cc1)cn2C1CCCC1
mean [1]: 0.6123 | Replicate_1 [2]: 0.3054 | Replicate_2 [3]: 0.9192

COc1ccc(NC(=O)c2ccc(-c3ccc(-c4noc(C)n4)cc3C)cc2)cc1N1CCN(C)CC1.Cl [GR 127935 hydrochloride]
mean [1]: 0.6456 | Replicate_1 [2]: 0.5978 | Replicate_2 [3]: 0.6934

CC1=C[C@@H]2c3cccc4[nH]cc(c34)C[C@H]2N(C)C1 [Agroclavine]
inhibition at 5 µM (sheet LOPAC_screen_w_protease, primary screen of LOPAC1280 at 5 µM with protease, mean of the two replicates, read-out: mean): 3.47% | inhibition at 5 µM (sheet LOPAC_screen_w_protease, primary screen of LOPAC1280 at 5 µM with protease, replicate 1, read-out: Replicate_1): 3.6% | inhibition at 5 µM (sheet LOPAC_screen_w_protease, primary screen of LOPAC1280 at 5 µM with protease, replicate 2, read-out: Replicate_2): 3.34%

CC(C)NCC(O)COc1cccc2[nH]ccc12 (stereo not drawn) [Pindolol]
inhibition at 5 µM [13]: 0.855% | inhibition at 5 µM [4]: 0.309% | inhibition at 5 µM [5]: 1.4%

O=C1Nc2ccc(I)cc2/C1=C/c1cc(Br)c(O)c(Br)c1 [GW5074]
mean [9]: 5.786 | Replicate_1 [10]: 6.4599 | Replicate_2 [11]: 5.112

NC(=Nc1ccccc1)NC(=O)c1nc(Cl)c(N)nc1N [Phenamil methanesulfonate]
inhibition at 5 µM [25]: 2.43% | inhibition at 5 µM [26]: 2.05% | inhibition at 5 µM [27]: 2.81%

COc1ccc(CCN(C)CCCC(C#N)(c2cc(OC)c(OC)c(OC)c2)C(C)C)cc1OC.Cl (racemic) [(±)-Methoxyverapamil hydrochloride]
mean (LOPAC_screen_w_protease) [12]: 2.071 | Replicate_1 (LOPAC_screen_w_protease) [7]: 2.317 | Replicate_2 (LOPAC_screen_w_protease) [8]: 1.826

CC(CN(C)C)CN1c2ccccc2CCc2ccccc21 (stereo not drawn) [Trimipramine maleate]
inhibition at 5 µM [25]: 2.36% | inhibition at 5 µM [26]: 3.17% | inhibition at 5 µM [27]: 1.55%

C[C@]12CC[C@@H](O)C[C@@H]1CC[C@@H]1[C@@H]2CC[C@]2(C)[C@@H](O)CC[C@@H]12 [5alpha-Androstane-3alpha,17beta-diol]
mean (LOPAC_screen_w_protease) [6]: 1.678 | Replicate_1 (LOPAC_screen_w_protease) [7]: 0.2579 | Replicate_2 (LOPAC_screen_w_protease) [8]: 3.098

CC(NC(C)(C)C)C(=O)c1cccc(Cl)c1 (stereo not drawn) [Bupropion hydrochloride]
inhibition at 5 µM (read-out: Replicate_1): 2.66% | inhibition at 5 µM (read-out: Replicate_2): 2.67% | inhibition at 5 µM (read-out: mean): 2.67%

NCCCCNCCCN [Spermidine trihydrochloride]
inhibition at 5 µM [22]: 4.14% | inhibition at 5 µM [23]: 3.25% | inhibition at 5 µM [24]: 5.03%

CN(C)CCC(c1ccc(Cl)cc1)c1ccccn1.O=C(O)/C=C\C(=O)O (racemic) [(±)-Chlorpheniramine maleate]
Replicate_1: 0.5322 | Replicate_2: -0.472 | mean: 0.03007

CC(C)(C)NCC(O)c1ccccc1Cl (stereo not drawn) [Tulobuterol hydrochloride]
inhibition at 5 µM [16]: 0.895% | inhibition at 5 µM [17]: 2.46% | inhibition at 5 µM [18]: -0.673%
